Assay: Solubility of PDMS vinylic monomer in 1-PrOH:Water mixtures
Format: physicochemical
Settings: 50-60 mg sample, stirred at room temperature
Experimental: The solubility of quaternium ammonium containing PDMS vinylic monomer prepared in Example 2 is evaluated in 1-PrOH:Water mixtures. Typically, 50-60 mg of the sample is combined with a selected solvent system and it is stirred/agitated at room temperature. After few minutes compatibility is evaluated. For comparison, the solubilities of three reference materials are also evaluated. The three reference material are: methacryloxypropyl- and n-butyl-terminated polydimiethylsiloxane (D6, Mn=700-800 g/mol) (Ref. 1); methacryloxypropyl- and n-butyl-terminated polydimiethylsiloxane (D9, Mn=900-1,000 g/mol) (Ref. 2); and methyl- and 2-[4-(chloromethyl)phenyl]ethyl-terminated polydimethylsiloxane (Ref. 3).

| Compound | Solubility (compatibility) in 1-PrOH:Water (1-PrOH:Water 0:100) | Solubility (compatibility) in 1-PrOH:Water (1-PrOH:Water 20:80) | Solubility (compatibility) in 1-PrOH:Water (1-PrOH:Water 40:60) | Solubility (compatibility) in 1-PrOH:Water (1-PrOH:Water 60:40) | Solubility (compatibility) in 1-PrOH:Water (1-PrOH:Water 80:20) | Solubility (compatibility) in 1-PrOH:Water (1-PrOH:Water 100:0) |
| --- | --- | --- | --- | --- | --- | --- |
| C=CC(=O)NCCC[N+](C)(C)Cc1ccc(CC[Si](C)(C)O[Si](C)(C)O[Si](C)(C)O[Si](C)(C)O[Si](C)(C)C)cc1 [Example 2] | Hazy | Hazy | Clear | Clear | Clear | Clear |
| methacryloxypropyl- and n-butyl-terminated polydimiethylsiloxane [Ref. 1] | Hazy | Hazy | Hazy | Hazy | Clear | Clear |
| methacryloxypropyl- and n-butyl-terminated polydimiethylsiloxane [Ref. 2] | Hazy | Hazy | Hazy | Hazy | Hazy | Clear |
| methyl- and 2-[4-(chloromethyl)phenyl]ethyl-terminated polydimethylsiloxane [Ref. 3] | Hazy | Hazy | Hazy | Hazy | Clear | Clear |
